Data on 1 molecule can be found in patent US20240082238A1, “COMPOSITIONS AND METHODS FOR TREATING CANCER” (UNIVERSITY OF IOWA RESEARCH FOUNDATION, priority 2021, published 2024).

For orientation: inhibition means the drop in the measured response relative to a control, in per cent.

The subject of data set [1] is Hec50co tumors. Put plainly: In vivo tumor accumulation of PTX-OG after peritumoral SC injection. Details: species or system athymic Nu/Nu mice. The settings on record: 0.1 mg/kg PTX-OG SC peritumoral, 24 h. On the procedure: Effect of drug combination on the in vivo tumor accumulation of PTX In this study, athymic Nu/Nu mice were challenged with 1×10^6 of Hec50co tumor cells per mouse on day zero of the experiment. When the tumor grew to a palpable size range of 100-150 mm^3, as measured by Equation 2, treatments were administered SC at the tumor site (peritumoral). Treatment groups (n=3 per group) included: (i) DPBS treated mice, 0.1 mg/kg PTX-OG, and 0.1 mg/kg PTX-OG+5 mg/kg CIP2b. After 24 hours, mice were euthanized, and tumors were collected and submerged in Hank's Balanced Salt Solution (HBSS) with calcium and magnesium. Tumors were then taken out of HBSS (one at a time to maintain cell viability), placed on a Petri dish, and mechanically minced with a sterile scalpel and forceps into small pieces. Tumor pieces were transferred to 50 mL tubes containing 10 mL of the pre-warmed (37° C.) sterile cell dissociation buffer (HBSS containing 50,000 U of collagenase IV and 100,000 U of DNase I). Samples were incubated at 37° C. under continuous rotation at 300 rpm for 60 minutes in the incubator-shaker. Then, cell suspensions were filtered through a 70 μm cell strainer then a 40 μm cell strainer to remove any aggregates. […] Finally, cell suspensions were acquired using a FACSCalibur flow cytometer, and data were analyzed using FlowJo software.

Data set [2] deals with T1, human Topo IIα (Homo sapiens, UniProt P11388).
T1 construct: purchased TopoGEN Inc. TG1001-1A
T1 sequence (P11388 whole entry): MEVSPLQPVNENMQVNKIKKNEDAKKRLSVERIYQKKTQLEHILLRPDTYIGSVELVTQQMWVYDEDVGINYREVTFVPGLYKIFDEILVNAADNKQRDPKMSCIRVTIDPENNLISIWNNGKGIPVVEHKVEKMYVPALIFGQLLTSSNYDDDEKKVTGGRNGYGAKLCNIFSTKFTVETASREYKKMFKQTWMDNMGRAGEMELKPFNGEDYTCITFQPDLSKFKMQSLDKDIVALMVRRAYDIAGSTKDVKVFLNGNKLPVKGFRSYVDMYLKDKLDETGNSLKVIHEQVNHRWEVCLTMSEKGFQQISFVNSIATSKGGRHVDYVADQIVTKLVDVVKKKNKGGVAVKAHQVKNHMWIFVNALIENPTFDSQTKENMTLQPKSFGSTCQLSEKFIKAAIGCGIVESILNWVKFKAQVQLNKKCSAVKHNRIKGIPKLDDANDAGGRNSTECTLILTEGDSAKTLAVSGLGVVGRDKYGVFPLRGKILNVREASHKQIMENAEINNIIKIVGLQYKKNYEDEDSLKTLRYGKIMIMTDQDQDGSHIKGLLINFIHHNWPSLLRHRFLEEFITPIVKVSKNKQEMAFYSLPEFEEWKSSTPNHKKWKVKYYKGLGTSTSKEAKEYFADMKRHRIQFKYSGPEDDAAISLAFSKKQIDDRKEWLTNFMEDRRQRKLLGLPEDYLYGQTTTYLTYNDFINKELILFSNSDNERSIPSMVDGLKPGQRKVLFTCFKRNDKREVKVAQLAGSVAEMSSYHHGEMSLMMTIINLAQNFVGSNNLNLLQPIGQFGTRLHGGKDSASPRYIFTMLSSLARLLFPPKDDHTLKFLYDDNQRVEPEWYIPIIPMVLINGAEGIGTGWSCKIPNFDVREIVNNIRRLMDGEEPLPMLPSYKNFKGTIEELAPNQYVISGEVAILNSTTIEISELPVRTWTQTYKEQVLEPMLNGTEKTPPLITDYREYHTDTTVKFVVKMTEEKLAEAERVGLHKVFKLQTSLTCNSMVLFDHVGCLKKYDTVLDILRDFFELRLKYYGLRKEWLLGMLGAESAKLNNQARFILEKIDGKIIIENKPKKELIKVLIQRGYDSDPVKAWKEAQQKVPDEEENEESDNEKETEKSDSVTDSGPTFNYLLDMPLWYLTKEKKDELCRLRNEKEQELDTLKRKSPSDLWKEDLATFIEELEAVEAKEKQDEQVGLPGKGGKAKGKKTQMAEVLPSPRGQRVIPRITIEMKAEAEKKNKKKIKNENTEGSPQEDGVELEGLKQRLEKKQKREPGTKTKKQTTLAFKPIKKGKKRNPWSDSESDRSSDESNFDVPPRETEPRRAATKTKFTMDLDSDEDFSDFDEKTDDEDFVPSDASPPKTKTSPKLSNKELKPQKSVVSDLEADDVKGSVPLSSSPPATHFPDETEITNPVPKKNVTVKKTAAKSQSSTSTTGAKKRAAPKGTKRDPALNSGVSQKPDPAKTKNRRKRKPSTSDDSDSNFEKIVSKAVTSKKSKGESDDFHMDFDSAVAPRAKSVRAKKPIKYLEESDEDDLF
Briefly: Topoisomerase II inhibition assay (plasmid-based). It counts as biochemical. Conditions: drug final concentration 100 μM; read-out: percentage of Topo II inhibition. On the procedure:
Topoisomerase II inhibition assay. A plasmid-based Topo II assay (Cat. No. TG1001-1A, TopoGEN Inc., Buena Vista, CO) was performed according to the manufacturer's instructions. In this experiment, 1 μL of tested compounds (PTX, CIP, CIP2b, ETO) at a concentration of 2 mM was mixed with 4 μL of the reaction buffer (mixture of buffer A (0.5 M Tris-HCl (pH 8), 1.50 M NaCl, 100 mM MgCl2, 5 mM Dithiothreitol, 300 μg BSA/mL) and buffer B (10× ATP Buffer), and deionized water was added to make 18 μL solution. This was followed by adding 1 μL of catenated DNA and 1 μL of human Topo IIα (8 U/μL) (drug final concentration was 100 μM). Additionally, decatenated DNA (De-CT DNA) and catenated DNA (CT DNA)±Topo II were used as a control (i.e., not containing drugs). Moreover, relaxed DNA was added as another control in this assay. Similar to Topo I assay, samples were then incubated on a heating block set at 37° C. for 30 minutes. Then, the reaction was stopped by the addition of a 5× stop buffer. Samples were then loaded directly into the wells of a 1% agarose gel containing 1 μg/mL ethidium bromide. The gel was run at 150 V until the dye front had traveled approximately 5 cm (run time was approximately 2 h). The gel was then washed with deionized water for 30 minutes before imaging. The image was taken using an Invitrogen iBright CL1500 Imaging System. The intensity of the final bands in the gel was quantified using ImageJ, and the results are expressed as the percentage of Topo II inhibition.

The subject of data set [3] is tubulin. Put plainly: Fluorescence-based tubulin polymerization assay. It is filed as biochemical. Conditions: 3 μM. An excerpt: Tubulin polymerization assay. Microtubules are one of the major cytoskeleton components in the cells, and they play an essential role in the spindle formation generated by α and β tubulin polymerization. Agents targeting microtubules function through two different mechanisms. To elaborate, several compounds like taxanes (e.g., PTX) promote the assembly of microtubules and are known to stabilize the microtubes whereas other compounds such as vinca alkaloid and colchicine are known to interrupt the spindle formation via inhibiting the tubulin polymerization; thereby, destabilize the microtubules. The result of both scenarios is metaphase arrest which induces apoptosis. To test the tubulin activity, a fluorescence-based tubulin polymerization assay (Cat. No. BK011P, Cytoskeleton Inc., Denver, CO) was performed according to the manufacturer's instructions. Briefly, stock solutions of PTX and CIP2b (in DMSO) were diluted with UltraPure™ water to make a final concentration of 3 μM. […] Before starting the experiment, the 96-well plate and fluorimeter (SpectraMax M5 Microplate Reader) were pre-warmed to 37° C. […] Samples and tubulin were added to a 96-well plate, and the plate was inserted into the plate reader. Kinetic measurements started immediately, and data were collected and analyzed.

As to `CC(=O)O[C@H]1C(=O)[C@@]2(C)[C@H]([C@H](OC(=O)c3ccccc3)[C@]3(O)C[C@H](OC(=O)[C@H](O)[C@@H](NC(=O)c4ccccc4)c4ccccc4)C(C)=C1C3(C)C)[C@]1(OC(C)=O)CO[C@@H]1C[C@@H]2O` [PTX, paclitaxel], the “in vivo intracellular accumulation of PTX-OG by tumor cells vs untreated control” value in data set [1] was “marginal in vivo intracellular accumulation”. For the same molecule, in data set [2], the inhibition at 100 µM was 8%. In data set [3], the “rate of tubulin polymerization” value was “promoted”. In addition, in data set [3] (tubulin alone 15 min), the “onset of tubulin polymerization” value is listed as “approximately 5 minutes”.
